Tested on: CA-STAT5aER
Experiment: Logic gate system with CA-STAT5aER payload, target reporter gene expression
Assay type: cell-based
Details: host cells co-cultured with CD19+ cells and treated with tamoxifen
Description: A logic gate system similar to the system depicted in FIG. 9 and FIG. 10 are examined. Dual promoter nucleic acids are prepared and introduced into host cells. The nucleic acids include an inducible iSynPro promoter and either a constitutively activated signal transducer and activator of transcription 5a (CA-STAT5a) protein (FIG. 9), a fusion protein of CA-STAT5a and of an estrogen receptor (CA-STAT5aER) (FIG. 10), or an alternative fusion protein of CA-STAT5a and of an estrogen receptor (CA-STAT5bER). Host cells are stimulated with Raji cells (CD19+), or PMA/ionomycin and are analyzed by FACS analysis for GFP and EGFRt expression.

Q: `CC/C(=C(\c1ccccc1)c1ccc(OCCN(C)C)cc1)c1ccccc1` [tamoxifen, 2-(4((1Z)-1,2-diphenyl-1-butenyl)phenoxy)-N,N-dimethyl-ethanamine] was tested. Which “target reporter gene expression” value did it give?
A: Its value is “express target reporter gene”.

Source: patent publication US20230242936A1, “DUAL PROMOTER SYSTEMS” (Seattle Children's Hospital (dba Seattle Children's …, priority 2020, published 2023)
